We go through 17 compounds from US11214538B2, “Farnesoid X receptor agonists and uses thereof” (Metacrine, Inc., priority 2015, dated 2022).

In this experiment the target is T1, hFXR (Homo sapiens, UniProt Q96RI1).
T1 construct: expressed in transfected cells; host or cells: CV-1 cells
T1 sequence (Q96RI1 1-486): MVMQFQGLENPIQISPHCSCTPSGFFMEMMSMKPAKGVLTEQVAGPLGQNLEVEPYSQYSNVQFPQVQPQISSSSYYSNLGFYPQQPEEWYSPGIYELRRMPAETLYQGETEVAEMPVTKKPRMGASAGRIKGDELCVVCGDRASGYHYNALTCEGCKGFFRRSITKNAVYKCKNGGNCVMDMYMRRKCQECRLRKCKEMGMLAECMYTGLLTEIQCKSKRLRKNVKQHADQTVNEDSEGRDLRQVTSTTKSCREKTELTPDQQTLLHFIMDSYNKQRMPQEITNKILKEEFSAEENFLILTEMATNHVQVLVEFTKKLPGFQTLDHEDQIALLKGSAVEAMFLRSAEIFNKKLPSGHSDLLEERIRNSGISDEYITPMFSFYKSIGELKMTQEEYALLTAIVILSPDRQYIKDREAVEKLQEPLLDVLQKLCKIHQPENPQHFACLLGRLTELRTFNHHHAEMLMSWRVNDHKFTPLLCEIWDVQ
T1 sequence (P19793 1-462 partner): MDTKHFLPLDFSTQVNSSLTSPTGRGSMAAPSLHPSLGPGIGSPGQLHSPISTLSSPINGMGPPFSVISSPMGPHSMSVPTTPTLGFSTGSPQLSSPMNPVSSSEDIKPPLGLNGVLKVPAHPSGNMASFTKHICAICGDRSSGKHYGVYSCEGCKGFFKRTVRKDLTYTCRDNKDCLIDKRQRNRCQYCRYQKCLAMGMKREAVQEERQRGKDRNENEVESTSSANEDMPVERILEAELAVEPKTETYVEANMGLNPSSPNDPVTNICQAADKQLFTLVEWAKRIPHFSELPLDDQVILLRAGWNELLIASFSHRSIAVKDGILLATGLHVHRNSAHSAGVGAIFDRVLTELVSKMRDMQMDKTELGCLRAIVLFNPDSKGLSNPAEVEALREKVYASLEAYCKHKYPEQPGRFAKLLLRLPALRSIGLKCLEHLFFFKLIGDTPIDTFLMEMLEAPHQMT
Description: In Vitro FXR Assay (TK), luciferase reporter in transfected CV-1 cells. The format is cell-based. The settings on record: CV-1 cells transfected with hFXR, hRXR, TK-ECRE-luc; 18 hrs incubation; luminescence; compounds with a maximum efficacy of <25% of the Fexaramine control classified as '+'. As for the experimental part: Example B-2: In Vitro FXR Assay (TK)
CV-1 cells were seeded at a density of 2,000,000 cells in a T175 flask with DMEM+10% charcoal double-stripped FBS and incubated at 37° C. in 5% CO2 for 18 h (O/N).
After 18 h of incubation, the medium in the T175 flask was changed with fresh DMEM+10% charcoal super-stripped serum. In a polypropylene tube, 2500 μL OptiMEM (Life Technologies, Cat #31985-062) was combined with expression plasmids for hFXR, hRXR, TK-ECRE-luc and pCMX-YFP. The tube was then briefly vortexed and incubated at room temperature for 5 minutes. Transfection reagent (X-tremeGENE HP from Roche, Cat #06 366 236 001) was added to the OptiMEM/plasmid mixture vortexed and incubated at room temperature for 20 minutes. Following incubation, the transfection reagent/DNA mixture complex was added to cells in the T175 flask and the cells were incubated at 37° C. in 5% CO2 for 18 h (O/N).
Compounds were serially diluted in DMSO and added to transfected CV-1 cells. The cells were then incubated for 18 hrs. The next day cells were lysed and examined for luminescence.
The compound `COc1ccc(-c2cccc(N(Cc3ccc(-c4ccc(N(C)C)cc4)cc3)C(=O)C3CCCCC3)c2)cc1` [Compound 3.1, N-((4′-(Dimethylamino)-[1,1′-biphenyl]-4-yl)methyl)-N-(4′-methoxy-[1,1′-biphenyl]-3-yl)cyclohexanecarboxamide] showed a concentration giving a half-maximal response (EC50) not above 3 µM.

For `CN(C)c1ccc(-c2ccc(CN(C(=O)C3CCCCC3)c3cccc(CCc4ncco4)c3)cc2)cc1` [Compound 22, N-((4′-(Dimethylamino)-[1,1′-biphenyl]-4-yl)methyl)-N-(3-(2-(oxazol-2-yl)ethyl)phenyl)cyclohexanecarboxamide], the EC50 was not above 3 µM.

Compound `CN(C)c1ccc(-c2ccc(CN(C(=O)C3CCCCC3)c3cccc(-c4cccnc4)c3)cc2)cc1` [Compound 23, N-((4′-(Dimethylamino)-[1,1′-biphenyl]-4-yl)methyl)-N-(3-(pyridin-3-yl)phenyl)cyclohexanecarboxamide] yielded an EC50 of 3 to 10 µM.

Regarding `Cc1cncc(-c2cccc(N(Cc3ccc(-c4ccc(N(C)C)cc4)cc3)C(=O)C3CCCCC3)c2)c1` [Compound 24, N-((4′-(Dimethylamino)-[1,1′-biphenyl]-4-yl)methyl)-N-(3-(5-methylpyridin-3-yl)phenyl)cyclohexanecarboxamide], the EC50 was 3 to 10 µM.

On to `CN(C)c1ccc(-c2ccc(CN(C(=O)C3CCCCC3)c3cccc(/C=C/c4ccccn4)c3)cc2)cc1` [Compound 27, (E)-N-((4′-(Dimethylamino)-[1,1′-biphenyl]-4-yl)methyl)-N-(3-(2-(pyridin-2-yl)vinyl)phenyl)cyclohexanecarboxamide], for which the EC50 is not above 3 µM.

`CN(C)c1ccc(-c2ccc(CN(C(=O)C3CCCCC3)c3cccc(/C=C/c4ccncc4)c3)cc2)cc1` [Compound 28, (E)-N-((4′-(Dimethylamino)-[1,1′-biphenyl]-4-yl)methyl)-N-(3-(2-(pyridin-4-yl)vinyl)phenyl)cyclohexanecarboxamide] yielded an EC50 of 3 to 10 µM.

With `COc1ncc(-c2cccc(N(Cc3ccc(-c4ccc(N(C)C)cc4)cc3)C(=O)C3CCCCC3)c2)s1` [Compound 29, N-((4′-(Dimethylamino)-[1,1′-biphenyl]-4-yl)methyl)-N-(3-(2-methoxythiazol-5-yl)phenyl)cyclohexanecarboxamide], the EC50 is not above 3 µM.

With `COc1ccc(-c2cccc(N(Cc3ccc(-c4ccc(N(C)C)cc4)cc3)C(=O)C3CCCCC3)c2)s1` [Compound 31, N-((4′-(Dimethylamino)-[1,1′-biphenyl]-4-yl)methyl)-N-(3-(5-methoxythiophen-2-yl)phenyl)cyclohexanecarboxamide], the concentration for a half-maximal effect (EC50) is not above 3 µM.

The compound `CCc1cncc(-c2cccc(N(Cc3ccc(-c4ccc(N(C)C)cc4)cc3)C(=O)C3CCCCC3)c2)c1` [Compound 33, N-((4′-(Dimethylamino)-[1,1′-biphenyl]-4-yl)methyl)-N-(3-(5-ethylpyridin-3-yl)phenyl)cyclohexanecarboxamide] came in with an EC50 of 3 to 10 µM.

With `COc1cc(-c2cccc(N(Cc3ccc(-c4ccc(N(C)C)cc4)cc3)C(=O)C3CCCCC3)c2)ncn1` [Compound 35, N-((4′-(Dimethylamino)-[1,1′-biphenyl]-4-yl)methyl)-N-(3-(6-methoxypyrimidin-4-yl)phenyl)cyclohexanecarboxamide], the EC50 is not above 3 µM.

Turning to `COc1cc(-c2cccc(N(Cc3ccc(-c4ccc(N(C)C)cc4)cc3)C(=O)C3CCCCC3)c2)sn1` [Compound 43, N-((4′-(Dimethylamino)-[1,1′-biphenyl]-4-yl)methyl)-N-(3-(3-methoxyisothiazol-5-yl)phenyl)cyclohexanecarboxamide], the EC50 is not above 3 µM.

In the case of `CN(C)c1ccc(-c2ccc(CN(C(=O)C3CCCCC3)c3cccc(-c4cc(=O)n(C)s4)c3)cc2)cc1` [Compound 44, N-((4′-(Dimethylamino)-[1,1′-biphenyl]-4-yl)methyl)-N-(3-(2-methyl-3-oxo-2,3-dihydroisothiazol-5-yl)phenyl)cyclohexanecarboxamide], the 50% effective concentration (EC50) was not above 3 µM.

`COc1ccc([C@H]2CC[C@H](CN(c3cccc(N4CC(OC)C4)c3)C(=O)[C@H]3CC[C@H](O)CC3)CC2)cc1C` [Compound 45, trans-4-Hydroxy-N-((trans-4-(4-methoxy-3-methylphenyl)cyclohexyl)methyl)-N-(3-(3-methoxyazetidin-1-yl)phenyl)cyclohexanecarboxamide] registered an EC50 not above 3 µM.

The compound `COCC1CN(c2cccc(N(C[C@H]3CC[C@H](c4ccc(OC)c(C)c4)CC3)C(=O)[C@H]3CC[C@H](O)CC3)c2)C1` [Compound 46, trans-4-Hydroxy-N-((trans-4-(4-methoxy-3-methylphenyl)cyclohexyl)methyl)-N-(3-(3-(methoxymethyl)azetidin-1-yl)phenyl)cyclohexanecarboxamide] showed an EC50 not above 3 µM.

In turn, `COc1ccc([C@H]2CC[C@H](CN(c3cccc(N4CCC(OC)C4)c3)C(=O)[C@H]3CC[C@H](O)CC3)CC2)cc1C` (stereo partly drawn) [Compound 47, trans-4-Hydroxy-N-((trans-4-(4-methoxy-3-methylphenyl)cyclohexyl)methyl)-N-(3-(3-methoxypyrrolidin-1-yl)phenyl)cyclohexanecarboxamide] registered an EC50 of 3 to 10 µM.

`COCC1CCN(c2cccc(N(C[C@H]3CC[C@H](c4ccc(OC)c(C)c4)CC3)C(=O)[C@H]3CC[C@H](O)CC3)c2)C1` (stereo partly drawn) [Compound 48, trans-4-Hydroxy-N-((trans-4-(4-methoxy-3-methylphenyl)cyclohexyl)methyl)-N-(3-(3-(methoxymethyl)pyrrolidin-1-yl)phenyl)cyclohexanecarboxamide] yielded an EC50 of 3 to 10 µM.

On to `COc1ccc([C@H]2CC[C@H](CN(c3cccc(N4CCC(OC)CC4)c3)C(=O)[C@H]3CC[C@H](O)CC3)CC2)cc1C` [Compound 49, trans-4-Hydroxy-N-((trans-4-(4-methoxy-3-methylphenyl)cyclohexyl)methyl)-N-(3-(4-methoxypiperidin-1-yl)phenyl)cyclohexanecarboxamide], for which the EC50 was not above 3 µM.

By EC50 is commonly meant the midpoint of the concentration-response curve. A low value points to an effect from little substance.
